From patent US7109193B2, “Tricyclic diazepines tocolytic oxytocin receptor antagonists” (Wyeth, priority 2001, dated 2006) come the findings set out here.

The structures appear in SMILES notation.

The target in this assay is T1, human vasopressin V1a receptor subtype (Homo sapiens, UniProt P37288).
T1 construct: host or cells: CHO cells (pZeoSV vector for the Thibonnier line)
T1 sequence (P37288 whole entry): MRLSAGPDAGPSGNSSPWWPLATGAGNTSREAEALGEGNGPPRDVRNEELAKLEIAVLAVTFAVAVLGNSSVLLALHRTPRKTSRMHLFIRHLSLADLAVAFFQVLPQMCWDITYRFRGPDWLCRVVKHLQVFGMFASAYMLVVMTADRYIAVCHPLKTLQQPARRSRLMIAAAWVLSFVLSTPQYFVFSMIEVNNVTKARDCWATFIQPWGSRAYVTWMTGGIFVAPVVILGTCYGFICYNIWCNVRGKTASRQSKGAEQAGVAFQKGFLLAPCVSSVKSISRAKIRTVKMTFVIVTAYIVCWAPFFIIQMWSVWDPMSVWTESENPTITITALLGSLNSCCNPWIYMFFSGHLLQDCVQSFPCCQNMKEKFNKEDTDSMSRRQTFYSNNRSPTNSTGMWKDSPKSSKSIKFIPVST
Put plainly: Vasopressin binding in Chinese Hamster Ovary cell membranes expressing human vasopressin V1a subtype receptors. Conditions: 100 nM, CHO cell membranes, [3H]Manning ligand, values without parentheses. Summed up:
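Membranes from CHO cells expressing human V1a receptor were incubated with [3H]Manning ligand (added as 20 μL of 8 nM) in pH 7.4 Tris buffer with MgCl2, BSA and protease inhibitors, 60 min at room temperature. Bound radioactivity was counted after filtration; values are percent inhibition at a stated concentration or IC50.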
For `Cc1ccccc1-c1ccc(C(=O)N2Cc3ccc(C(=O)N4CCN(CCCN(C)C)CC4)n3Cc3ccccc32)cc1C` [Example 247, {4-[3-(Dimethylamino)propyl]-1-piperazinyl}{10-[(2,2′-dimethyl[1,1′-biphenyl]-4-yl)carbonyl]-10,11-dihydro-5H-pyrrolo[2,1-c][1,4]benzodiazepin-3-yl}methanone], the inhibition – broadly, the change of the read-out against control, counted positive when it falls – at 0.1 µM was found to be 62%. For the molecule `COc1cc(-c2ccccc2C)c(Cl)cc1C(=O)N1Cc2ccc(C(=O)NCCCN(C)C)n2Cc2ccccc21` [Example 78, 10-[(6-Chloro-3-methoxy-2′-methyl[1,1′-biphenyl]-4-yl)carbonyl]-N-[3-(dimethylamino)propyl]-10,11-dihydro-5H-pyrrolo[2,1-c][1,4]benzodiazepine-3-carboxamide], the inhibition at 0.1 µM was -3%. For `COc1cccc(-c2ccc(C(=O)N3Cc4ccc(C(=O)N5CCN(C)CC5)n4Cc4ccccc43)cc2C)c1` [Example 51, {10-[(3′-Methoxy-2-methyl[1,1′-biphenyl]-4-yl)carbonyl]-10,11-dihydro-5H-pyrrolo[2,1-c][1,4]benzodiazepin-3-yl}(4-methyl-1-piperazinyl)methanone], the inhibition at 0.1 µM came to 14%. The value for `COc1cc(C(=O)N2Cc3ccc(C(=O)N4CCN(C)CC4)n3Cc3ccccc32)ccc1-c1cccc2ccccc12` [Example 55, {10-[3-Methoxy-4-(1-naphthyl)benzoyl]-10,11-dihydro-5H-pyrrolo[2,1-c][1,4]benzodiazepin-3-yl}(4-methyl-1-piperazinyl)methanone] was 4%; that for `COc1cc(C(=O)N2Cc3cccn3Cc3ccccc32)ccc1-c1ccccc1C(F)(F)F` [Example 19D, (10,11-Dihydro-5H-pyrrolo[2,1-c][1,4]benzodiazepin-10-yl)-(2-methoxy-2′-trifluoromethyl-[1,1′-biphenyl]-4-yl)-methanone] was 51%; that for `CN(C)CCCN1CCN(C(=O)c2ccc3n2Cc2ccccc2N(C(=O)c2ccc(-c4cccc5ccccc45)cc2Cl)C3)CC1` [Example 256, {10-[2-Chloro-4-(1-naphthyl)benzoyl]-10,11-dihydro-5H-pyrrolo[2,1-c][1,4]benzodiazepin-3-yl}{4-[3-(dimethylamino)propyl]-1-piperazinyl}methanone] was 7%.

In the case of `COc1cccc(-c2cc(OC)c(C(=O)N3Cc4ccc(C(=O)N5CCCN(C)CC5)n4Cc4ccccc43)cc2Cl)c1` [Example 67, {10-[(6-Chloro-3,3′-dimethoxy[1,1′-biphenyl]-4-yl)carbonyl]-10,11-dihydro-5H-pyrrolo[2,1-c][1,4]benzodiazepin-3-yl}(4-methyl-1,4-diazepan-1-yl)methanone], the inhibition at 0.1 µM was -4%. The figure for `COc1cccc(-c2cc(OC)c(C(=O)N3Cc4ccc(C(=O)N5CCN(C)CC5)n4Cc4ccccc43)cc2Cl)c1` [Example 54, {10-[(6-Chloro-3,3′-dimethoxy[1,1′-biphenyl]-4-yl)carbonyl]-10,11-dihydro-5H-pyrrolo[2,1-c][1,4]benzodiazepin-3-yl}(4-methyl-1-piperazinyl)methanone] is -4%; for `CC(C)N1CCN(C(=O)c2ccc3n2Cc2ccccc2N(C(=O)c2ccc(-c4cccc5ccccc45)cc2Cl)C3)CC1` [Example 243, {10-[2-Chloro-4-(1-naphthyl)benzoyl]-10,11-dihydro-5H-pyrrolo[2,1-c][1,4]benzodiazepin-3-yl}(4-isopropyl-1-piperazinyl)methanone] it is 5%. The value for `COc1cc(C(=O)N2Cc3ccc(C(=O)N4CCCN(C)CC4)n3Cc3ccccc32)ccc1-c1cccc2ccccc12` [Example 68, {10-[3-Methoxy-4-(1-naphthyl)benzoyl]-10,11-dihydro-5H-pyrrolo[2,1-c][1,4]benzodiazepin-3-yl}(4-methyl-1,4-diazepan-1-yl)methanone] was 9%; that for `COc1ccccc1-c1ccc(C(=O)N2Cc3ccc(C(=O)N[C@@H](Cc4c[nH]cn4)C(N)=O)n3Cc3ccccc32)cc1` [Example 285, N-[(1S)-2-Amino-1-(1H-imidazol-4-ylmethyl)-2-oxoethyl]-10-[(2′-methoxy[1,1′-biphenyl]-4-yl)carbonyl]-10,11-dihydro-5H-pyrrolo[2,1-c][1,4]benzodiazepine-3-carboxamide] was 38%; that for `Cc1ccccc1-c1ccc(C(=O)N2Cc3ccc(C(=O)NCCCN(C)C)n3Cc3ccccc32)cc1` [Example 76, N-[3-(Dimethylamino)propyl]-10-[(2′-methyl[1,1′-biphenyl]-4-yl)carbonyl]-10,11-dihydro-5H-pyrrolo[2,1-c][1,4]benzodiazepine-3-carboxamide] was 58%. As to `Cc1cc(C(=O)N2Cc3ccc(C(=O)N[C@@H](Cc4c[nH]cn4)C(N)=O)n3Cc3ccccc32)ccc1-c1ccccc1C(F)(F)F` [Example 284, N-[(1S)-2-Amino-1-(1H-imidazol-4-ylmethyl)-2-oxoethyl]-10-{[2-methyl-2′-(trifluoromethyl)[1,1′-biphenyl]-4-yl]carbonyl}-10,11-dihydro-5H-pyrrolo[2,1-c][1,4]benzodiazepine-3-carboxamide], the inhibition at 0.1 µM worked out at 0%.

Regarding `COc1cc(C(=O)N2Cc3ccc(C(=O)NCCCN(C)C)n3Cc3ccccc32)ccc1-c1ccccc1C` [Example 77, N-[3-(Dimethylamino)propyl]-10-[(2-methoxy-2′-methyl[1,1′-biphenyl]-4-yl)carbonyl]-10,11-dihydro-5H-pyrrolo[2,1-c][1,4]benzodiazepine-3-carboxamide], the inhibition at 0.1 µM came to 44%. The value for `Cc1ccccc1-c1ccc(C(=O)N2Cc3ccc(C(=O)NCCCN(C)C)n3Cc3ccccc32)cc1C` [Example 73, N-[3-(Dimethylamino)propyl]-10-[(2,2′-dimethyl[1,1′-biphenyl]-4-yl)carbonyl]-10,11-dihydro-5H-pyrrolo[2,1-c][1,4]benzodiazepine-3-carboxamide] was 46%; that for `COc1ccccc1-c1ccc(C(=O)N2Cc3ccc(C(=O)n4ccnc4)n3Cc3ccccc32)cc1C` [Example 292, 1H-Imidazol-1-yl-{10-[(2′-methoxy-2-methyl[1,1′-biphenyl]-4-yl)carbonyl]-10,11-dihydro-5H-pyrrolo[2,1-c][1,4]benzodiazepin-3-yl}methanone] was 6%; that for `COc1ccccc1-c1ccc(C(=O)N2Cc3ccc(C(=O)N[C@@H](Cc4c[nH]cn4)C(N)=O)n3Cc3ccccc32)cc1C` [Example 288, N-[(1S)-2-Amino-1-(1H-imidazol-4-ylmethyl)-2-oxoethyl]-10-[(2′-methoxy-2-methyl[1,1′-biphenyl]4-yl)carbonyl]-10,11-dihydro-5H-pyrrolo[2,1-c][1,4]benzodiazepine-3-carboxamide] was 24%. As to `COc1cc(-c2ccccc2C)c(Cl)cc1C(=O)N1Cc2ccc(C(=O)N[C@@H]3CN4CCC3CC4)n2Cc2ccccc21` [Example 297, N-[(3S)-1-Azabicyclo[2.2.2]oct-3-yl]-10-[(6-chloro-3-methoxy-2′-methyl-[1,1′-biphenyl]-4-yl)carbonyl]-10,11-dihydro-5H-pyrrolo[2,1-c][1,4]benzodiazepine-3-carboxamide], the inhibition at 0.1 µM was -2%. The value for `COc1ccccc1-c1ccc(C(=O)N2Cc3ccc(C(=O)N4CCN(CCCN(C)C)CC4)n3Cc3ccccc32)cc1OC` [Example 254, {10-[(2,2′-Dimethoxy[1,1′-biphenyl]-4-yl)carbonyl]-10,11-dihydro-5H-pyrrolo[2,1-c][1,4]benzodiazepin-3-yl}{4-[3-(dimethylamino)propyl]-1-piperazinyl}methanone] was 7%. The figure for `COc1cc(C(=O)N2Cc3ccc(C(=O)N4CCCN(C)CC4)n3Cc3ccccc32)ccc1-n1c(C)ccc1C` [Example 307, {10-[4-(2,5-Dimethyl-1H-pyrrol-1-yl)-3-methoxybenzoyl]-10,11-dihydro-5H-pyrrolo[2,1-c][1,4]benzodiazepin-3-yl}(4-methyl-1,4-diazepan-1-yl)methanone] is -7%; for `COc1cc(C(=O)N2Cc3ccc(C(=O)N(C)CCN(C)C)n3Cc3ccccc32)ccc1-n1c(C)ccc1C` [Example 309, N-[2-(Dimethylamino)ethyl]-10-[4-(2,5-dimethyl-1H-pyrrol-1-yl)-3-methoxybenzoyl]-N-methyl-10,11-dihydro-5H-pyrrolo[2,1-c][1,4]benzodiazepine-3-carboxamide] it is 11%; for `Cc1cc(C(=O)N2Cc3cccn3Cc3ncccc32)ccc1-c1ccccc1C(F)(F)F` [Example 323F, (2-Methyl-2′-trifluoromethyl-[1,1′-biphenyl]-4-yl)-(4H,10H-3a,5,9-triaza-benzo[f]azulen-9-yl)-methanone] it is 2%.

With `Cc1cc(C(=O)N2Cc3ccc(C(=O)N[C@H]4CN5CCC4CC5)n3Cc3ccccc32)ccc1-c1ccccc1C(F)(F)F` [Example 301, N-[(3R)-1-Azabicyclo[2.2.2]oct-3-yl]-10-{[2-methyl-2′-(trifluoromethyl)[1,1′-biphenyl]-4-yl]carbonyl}-10,11-dihydro-5H-pyrrolo[2,1-c][1,4]benzodiazepine-3-carboxamide], the inhibition at 0.1 µM was 1%.

As to `COc1cccc(-c2cc(OC)c(C(=O)N3Cc4ccc(C(=O)N[C@@H](Cc5c[nH]cn5)C(N)=O)n4Cc4ccccc43)cc2Cl)c1` [Example 287, N-[(1S)-2-Amino-1-(1H-imidazol-4-ylmethyl)-2-oxoethyl]-10-[(6-chloro-3,3′-dimethoxy[1,1′-biphenyl]-4-yl)carbonyl]-10,11-dihydro-5H-pyrrolo[2,1-c][1,4]benzodiazepine-3-carboxamide], the inhibition at 0.1 µM came to 0%.

With `COc1cc(C(=O)N2Cc3ccc(C(=O)NCCCN(C)C)n3Cc3ccccc32)ccc1-n1c(C)ccc1C` [Example 308, N-[3-(Dimethylamino)propyl]-10-[4-(2,5-dimethyl-1H-pyrrol-1-yl)-3-methoxybenzoyl]-10,11-dihydro-5H-pyrrolo[2,1-c][1,4]benzodiazepine-3-carboxamide], the inhibition at 0.1 µM is -12%.
